This is an account of results in patent publication US20230212180A1, “SUBSTITUTED PYRAZINE COMPOUND, PHARMACEUTICAL COMPOSITION COMPRISING SAME, AND USE THEREOF” (Sichuan Kelun-Biotech Biopharmaceutical Co., Ltd., priority 2020, published 2023).

The target of test [1] is T1, CYP1A2 (Homo sapiens, UniProt P05177).
T1 construct: purchased Promega
T1 sequence (P05177 1-516): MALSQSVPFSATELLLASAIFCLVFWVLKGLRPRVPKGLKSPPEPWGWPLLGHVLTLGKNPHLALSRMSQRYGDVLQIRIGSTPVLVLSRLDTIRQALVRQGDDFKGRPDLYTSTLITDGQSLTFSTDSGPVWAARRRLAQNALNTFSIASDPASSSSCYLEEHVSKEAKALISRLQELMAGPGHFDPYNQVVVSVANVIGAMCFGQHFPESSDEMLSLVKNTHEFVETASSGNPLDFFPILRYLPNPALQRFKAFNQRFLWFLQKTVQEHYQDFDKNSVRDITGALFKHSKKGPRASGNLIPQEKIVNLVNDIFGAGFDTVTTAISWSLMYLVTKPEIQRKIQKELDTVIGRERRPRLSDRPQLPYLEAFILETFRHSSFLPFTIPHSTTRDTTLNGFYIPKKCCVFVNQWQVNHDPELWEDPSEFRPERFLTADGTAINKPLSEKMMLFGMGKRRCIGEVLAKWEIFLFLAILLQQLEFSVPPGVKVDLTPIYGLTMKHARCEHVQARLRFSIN
Put plainly: Biochemical assay for CYP enzyme inhibition, P450-Glo CYP1A2 Screening System. Format: in vitro ADME. Particulars: for IC50: estimated from percentage inhibition, read-out: IC50 (μM) CYP1A2. The protocol:
Test Example 5: Biochemical Assay for CYP Enzyme (Cytochrome P450) Inhibition
P450-Glo™ CYP1A2 Screening System, (Promega);
BMG PHERAstar FS Luminescent.
The experiments were carried out separately according to the instructions of the kits. The steps were as follows:
3.1. Inhibition Against CYP1A2:
Test group: The test compounds at different concentrations were added into a microplate, and Luciferin-ME (100 μM), K3PO4 (100 mM), and CYP1A2 (0.01 μmol/μL) were added into each well, and pre-incubated at room temperature for 10 min. Thereafter, an NADPH regeneration system was added. The mixture was reacted at room temperature for 30 min. Finally, an equal volume of detection buffer was added and incubated at room temperature for 20 min, followed by chemiluminescence detection.
Negative control group: The experimental method for the negative control group was the same as that for the test group, except that the test compound was not added.
Blank control group: The experimental method for the blank control group was the same as that for the test group, except that the test compound was not added and that CYP1A2 was replaced with CYP1A2 Membrance (0.01 μmol/μL).
Percentage inhibition=(1−(the chemiluminescent signal value of the test compound group at a certain test concentration−the chemiluminescent signal value of the blank control group)/(the chemiluminescent signal value of the negative control group−the chemiluminescent signal value of the blank control group))×100%.
When the percentage inhibition was between 30% and 80%, a single value or a value range of the half maximal inhibitory concentration (IC50) of the compound against the CYP enzyme was estimated based on the following equation: IC50=X×(1−percentage inhibition)/percentage inhibition, wherein X was the test concentration of the compound.

Test [2] deals with T2, AAK1 (Homo sapiens, UniProt Q2M2I8).
T2 construct: purchased ThermoFisher USA (contract testing)
T2 sequence (Q2M2I8 whole entry): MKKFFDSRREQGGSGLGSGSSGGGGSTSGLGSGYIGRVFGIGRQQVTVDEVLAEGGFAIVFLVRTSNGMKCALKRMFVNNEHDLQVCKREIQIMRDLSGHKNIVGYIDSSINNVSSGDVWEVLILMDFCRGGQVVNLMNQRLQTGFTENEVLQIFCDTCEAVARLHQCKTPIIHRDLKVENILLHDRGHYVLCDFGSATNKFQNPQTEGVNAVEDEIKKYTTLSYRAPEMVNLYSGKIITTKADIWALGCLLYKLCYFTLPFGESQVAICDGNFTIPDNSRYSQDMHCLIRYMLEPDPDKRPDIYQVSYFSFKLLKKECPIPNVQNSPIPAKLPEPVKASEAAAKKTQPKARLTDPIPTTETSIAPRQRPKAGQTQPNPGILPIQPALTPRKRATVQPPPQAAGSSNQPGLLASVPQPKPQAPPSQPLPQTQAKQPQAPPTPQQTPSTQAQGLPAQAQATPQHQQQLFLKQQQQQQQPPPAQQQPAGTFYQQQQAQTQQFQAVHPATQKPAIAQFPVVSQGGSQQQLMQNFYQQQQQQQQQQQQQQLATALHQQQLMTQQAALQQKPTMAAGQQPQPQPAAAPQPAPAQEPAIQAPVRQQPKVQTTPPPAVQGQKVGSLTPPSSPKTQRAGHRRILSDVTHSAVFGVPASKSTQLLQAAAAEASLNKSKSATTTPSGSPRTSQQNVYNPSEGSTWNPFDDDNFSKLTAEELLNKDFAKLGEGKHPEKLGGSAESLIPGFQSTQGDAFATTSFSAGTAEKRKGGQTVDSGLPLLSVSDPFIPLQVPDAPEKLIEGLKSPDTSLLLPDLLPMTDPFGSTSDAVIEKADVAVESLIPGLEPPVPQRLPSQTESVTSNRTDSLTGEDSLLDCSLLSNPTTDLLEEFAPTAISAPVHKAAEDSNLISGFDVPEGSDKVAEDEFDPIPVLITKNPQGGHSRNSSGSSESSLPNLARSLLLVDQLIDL
The test is described as follows: Kinase selectivity test (ThermoFisher). Details: concentration or dose not given beside the values. The test is classed as biochemical. The protocol: (§1) Test Example 11: Kinase Selectivity Test
(§2) 1. Experimental Purpose: Tests for selectivity of the compounds of the present disclosure for a plurality of kinases were carried out to assess the safety risk of the compounds of the present disclosure.
(§3) 2. Test institution: ThermoFisher USA
(§4) 3. Testing methods: LanthaScreen binding, Z′-LYTE, Adapta
(§5) 4. Test targets: 100 targets in total

Test [3] deals with T3, SGK (SGK1) (Homo sapiens, UniProt O00141).
T3 construct: purchased ThermoFisher USA (contract testing)
T3 sequence (O00141 1-431): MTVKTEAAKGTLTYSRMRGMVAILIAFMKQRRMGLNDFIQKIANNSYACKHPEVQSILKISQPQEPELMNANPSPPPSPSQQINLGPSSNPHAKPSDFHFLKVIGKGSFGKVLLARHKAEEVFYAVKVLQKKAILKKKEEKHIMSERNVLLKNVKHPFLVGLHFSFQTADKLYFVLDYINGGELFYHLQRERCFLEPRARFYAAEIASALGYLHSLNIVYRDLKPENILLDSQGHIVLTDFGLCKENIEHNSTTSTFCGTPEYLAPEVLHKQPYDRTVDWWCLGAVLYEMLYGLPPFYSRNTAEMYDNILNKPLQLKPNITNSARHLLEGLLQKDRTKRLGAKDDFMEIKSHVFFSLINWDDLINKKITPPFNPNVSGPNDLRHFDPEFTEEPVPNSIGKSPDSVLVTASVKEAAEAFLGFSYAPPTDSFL
Put plainly: Kinase selectivity test (ThermoFisher). The test is classed as biochemical. More on the design: concentration or dose not given beside the values. How it is done: as §1, §2, §3, §4, §5

Test [4] has as its target T4, CAMK1 (CaMK1) (Homo sapiens, UniProt Q14012).
T4 construct: purchased ThermoFisher USA (contract testing)
The test is described as follows: Kinase selectivity test (ThermoFisher). Format: biochemical. Details: concentration or dose not given beside the values. How it is done:
as §1, §2, §3, §4, §5

For test [5], the target named is T5, KDR (VEGFR2) (Homo sapiens, UniProt P35968).
T5 construct: purchased ThermoFisher USA (contract testing)
T5 sequence (P35968 20-1356): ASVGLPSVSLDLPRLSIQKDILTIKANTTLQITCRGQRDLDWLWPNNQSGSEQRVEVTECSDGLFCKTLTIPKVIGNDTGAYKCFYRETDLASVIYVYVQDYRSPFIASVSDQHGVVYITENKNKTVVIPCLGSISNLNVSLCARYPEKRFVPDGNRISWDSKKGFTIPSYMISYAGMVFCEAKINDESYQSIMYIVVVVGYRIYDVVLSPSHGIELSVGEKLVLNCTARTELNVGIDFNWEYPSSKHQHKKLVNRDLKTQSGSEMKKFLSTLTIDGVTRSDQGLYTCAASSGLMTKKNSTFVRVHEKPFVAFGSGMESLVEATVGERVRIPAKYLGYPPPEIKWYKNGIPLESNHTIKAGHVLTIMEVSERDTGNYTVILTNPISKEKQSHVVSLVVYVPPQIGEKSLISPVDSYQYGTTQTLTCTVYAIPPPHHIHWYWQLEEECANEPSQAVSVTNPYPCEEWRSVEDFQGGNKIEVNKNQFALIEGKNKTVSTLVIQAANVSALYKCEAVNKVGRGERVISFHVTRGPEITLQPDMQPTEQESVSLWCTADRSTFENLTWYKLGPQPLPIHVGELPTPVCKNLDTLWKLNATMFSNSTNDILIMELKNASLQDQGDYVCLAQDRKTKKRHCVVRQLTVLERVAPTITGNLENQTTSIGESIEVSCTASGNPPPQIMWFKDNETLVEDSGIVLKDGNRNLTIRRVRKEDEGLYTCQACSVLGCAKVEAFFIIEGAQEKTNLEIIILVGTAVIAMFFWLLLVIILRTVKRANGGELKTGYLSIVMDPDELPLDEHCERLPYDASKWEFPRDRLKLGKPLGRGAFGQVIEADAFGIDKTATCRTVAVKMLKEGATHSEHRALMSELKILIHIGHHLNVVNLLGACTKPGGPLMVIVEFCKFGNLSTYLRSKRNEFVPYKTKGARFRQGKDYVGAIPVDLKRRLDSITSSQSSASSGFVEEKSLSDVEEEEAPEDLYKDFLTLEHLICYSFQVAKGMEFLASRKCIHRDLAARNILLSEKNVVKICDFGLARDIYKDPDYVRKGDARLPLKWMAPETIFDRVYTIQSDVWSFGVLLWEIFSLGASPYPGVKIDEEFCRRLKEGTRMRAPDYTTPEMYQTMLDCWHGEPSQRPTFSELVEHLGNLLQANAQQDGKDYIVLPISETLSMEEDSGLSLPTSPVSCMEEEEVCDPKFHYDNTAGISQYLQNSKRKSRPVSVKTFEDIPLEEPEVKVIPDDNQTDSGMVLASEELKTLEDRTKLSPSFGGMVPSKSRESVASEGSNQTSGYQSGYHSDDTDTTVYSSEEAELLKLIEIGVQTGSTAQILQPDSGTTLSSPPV
Put plainly: Kinase selectivity test (ThermoFisher). Format: biochemical. More on the design: concentration or dose not given beside the values. How it is done:
as §1, §2, §3, §4, §5

Test [6] deals with T6, MAPKAPK2 (Homo sapiens, UniProt P49137).
T6 construct: purchased ThermoFisher USA (contract testing)
T6 sequence (P49137 whole entry): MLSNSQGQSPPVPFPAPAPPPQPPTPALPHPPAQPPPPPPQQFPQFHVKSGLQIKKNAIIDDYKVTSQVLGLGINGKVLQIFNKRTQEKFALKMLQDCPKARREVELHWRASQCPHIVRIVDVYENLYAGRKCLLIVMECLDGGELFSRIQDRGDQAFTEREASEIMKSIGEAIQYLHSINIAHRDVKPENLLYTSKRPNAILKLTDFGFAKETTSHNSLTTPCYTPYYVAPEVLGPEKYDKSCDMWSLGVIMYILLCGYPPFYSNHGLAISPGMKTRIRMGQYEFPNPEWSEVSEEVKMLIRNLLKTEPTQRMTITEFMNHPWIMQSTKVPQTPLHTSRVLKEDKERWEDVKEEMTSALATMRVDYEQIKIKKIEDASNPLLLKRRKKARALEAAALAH
The test is described as follows: Kinase selectivity test (ThermoFisher). More on the design: concentration or dose not given beside the values. The test is classed as biochemical. The protocol: as §1, §2, §3, §4, §5

pIC50: −log10 of the molar value. Like-named read-outs stand apart in the source and are kept apart here.

T4 sequence (Q14012 whole entry): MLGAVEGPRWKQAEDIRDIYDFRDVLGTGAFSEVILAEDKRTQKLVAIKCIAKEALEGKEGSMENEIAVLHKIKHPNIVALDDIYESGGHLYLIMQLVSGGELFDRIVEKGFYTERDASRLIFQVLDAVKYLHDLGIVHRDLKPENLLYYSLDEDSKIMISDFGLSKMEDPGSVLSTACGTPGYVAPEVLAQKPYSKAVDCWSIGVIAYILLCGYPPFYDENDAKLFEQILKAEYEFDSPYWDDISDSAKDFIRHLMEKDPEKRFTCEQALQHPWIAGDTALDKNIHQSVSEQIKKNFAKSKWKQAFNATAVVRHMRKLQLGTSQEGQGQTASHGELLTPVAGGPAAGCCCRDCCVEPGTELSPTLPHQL

As to `C[C@@H]1OCC2(CCN(c3ncc(Sc4ccnc(N5CC(C)(CO)C5)c4Cl)nc3CO)CC2)[C@@H]1N` [Example 27, (3-((3S,4S)-4-amino-3-methyl-2-oxa-8-azaspiro[4.5]decan-8-yl)-6-(3-chloro-2-(3-(hydroxymethyl)-3-methylazetidin-1-yl)pyridin-4-ylthio)pyrazin-2-yl)methanol], the pIC50 (in general, −log10 of the IC50, conventionally taken in molar units) in test [1] is below 5.00.
Still for that read-out and setting: as for `C[C@@H]1OCC2(CCN(c3ncc(Sc4ccnc(N5CC(C(C)(C)O)C5)c4F)nc3CO)CC2)[C@@H]1N` [Example 40, 2-(1-(4-(5-((3S,4S)-4-amino-3-methyl-2-oxa-8-azaspiro[4.5]decan-8-yl)-6-(hydroxymethyl)pyrazin-2-ylthio)-3-fluoropyridin-2-yl)azetidin-3-yl)propan-2-ol], the figure is below 5.00.
As to `CC(C)(O)C1CN(c2nccc(Sc3cnc(N4CCC5(CC4)Cc4ncccc4[C@H]5N)c(CO)n3)c2Cl)C1` [Example 43, (S)-2-(1-(4-(5-(5-amino-5,7-dihydrospiro[cyclopenta[b]pyridine-6,4′-piperidin]-1′-yl)-6-(hydroxymethyl)pyrazin-2-ylthio)-3-chloropyridin-2-yl)azetidin-3-yl)propan-2-ol], the IC50 (commonly the concentration that inhibits the measured activity by half) in test [1] is above 10 µM.
For the molecule `C[C@@H]1OCC2(CCN(c3cnc(Sc4ccnc(N)c4Cl)c(N)n3)CC2)[C@@H]1N` [TNO-155, reference compound], the “Inhibition (%) Target 1” value in test [2] worked out at 49%; in test [3] it was 62%; in test [4], 55%; in test [5] it was 73%; in test [6] it was 106%. In addition, the “Inhibition (%) Target 2” value in test [2] was found to be 46%; in test [3] it was 57%; in test [4], 46%; in test [5], 73%; in test [6], 107%. Moreover, the “Inhibition (%) Mean value” is reported as 48% in test [2]; 60% in test [3]; 51% in test [4]; 73% in test [5]; 106% in test [6].
`CC(C)(O)C1CN(c2nccc(Sc3cnc(N4CCC5(CC4)COC[C@H]5N)c(CO)n3)c2Cl)C1` [Example 13, (S)-2-(1-(4-(5-(4-amino-2-oxa-8-azaspiro[4.5]decan-8-yl)-6-(hydroxymethyl)pyrazin-2-ylthio)-3-chloropyridin-2-yl)azetidin-3-yl)propan-2-ol] gave a pIC50 in test [1] below 5.00.
Still for that read-out and setting: with `C[C@@H]1OCC2(CCN(c3ncc(Sc4ccnc(N5CC(C#N)(CO)C5)c4Cl)nc3CO)CC2)[C@@H]1N` [Example 47, 1-(4-(5-((3S,4S)-4-amino-3-methyl-2-oxa-8-azaspiro[4.5]decan-8-yl)-6-(hydroxymethyl)pyrazin-2-ylthio)-3-chloropyridin-2-yl)-3-(hydroxymethyl)azetidine-3-carbonitrile] the figure was below 5.00.
Take `CC(C)(O)C1CN(c2nccc(Sc3ncc(N4CCC5(CC4)Cc4ncccc4[C@H]5N)nc3N)c2Cl)C1` [Example 46, (S)-2-(1-(4-(3-amino-5-(5-amino-5,7-dihydrospiro[cyclopenta[b]pyridine-6,4′-piperidin]-1′-yl)pyrazin-2-ylthio)-3-chloropyridin-2-yl)azetidin-3-yl)propan-2-ol]: the IC50 in test [1] was above 10 µM.
For the molecule `C[C@@H]1OCC2(CCN(c3ncc(Sc4ccnc(N5CC(C)(CS(C)(=O)=O)C5)c4Cl)nc3CO)CC2)[C@@H]1N` [Example 29, (3-((3S,4S)-4-amino-3-methyl-2-oxa-8-azaspiro[4.5]decan-8-yl)-6-(3-chloro-2-(3-methyl-3-(methylsulfonylmethyl)azetidin-1-yl)pyridin-4-ylthio)pyrazin-2-yl)methanol], the pIC50 in test [1] was below 5.00.
As for `C[C@@H]1OCC2(CCN(c3ncc(Sc4ccnc(N5CC(C(C)(C)O)C5)c4Cl)nc3CO)CC2)[C@@H]1N` [Example 12, 2-(1-(4-(5-((3S,4S)-4-amino-3-methyl-2-oxa-8-azaspiro[4.5]decan-8-yl)-6-(hydroxymethyl)pyrazin-2-ylthio)-3-chloropyridin-2-yl)azetidin-3-yl)propan-2-ol], the “Inhibition (%) Target 1” value in test [2] is given as 3%; in test [3] it was 1%; in test [4], −9%; in test [5], 3%; in test [6], 31%. In addition, the “Inhibition (%) Target 2” value in test [2] is 0%; in test [3], 2%; in test [4], −16%; in test [5], 4%; in test [6], 27%. The “Inhibition (%) Mean value” in test [2] is reported as 1%; in test [3] it was 1%; in test [4], −12%; in test [5], 3%; in test [6], 29%. Further, the pIC50 in test [1] is below 5.00.
As for `C[C@@H]1OCC2(CCN(c3ncc(Sc4ccnc(N5CC(CO)(CF)C5)c4Cl)nc3CO)CC2)[C@@H]1N` [Example 42, (3-((3S,4S)-4-amino-3-methyl-2-oxa-8-azaspiro[4.5]decan-8-yl)-6-(3-chloro-2-(3-(fluoromethyl)-3-(hydroxymethyl)azetidin-1-yl)pyridin-4-ylthio)pyrazin-2-yl)methanol], the pIC50 in test [1] is below 5.00.
In turn, `C[C@@H]1OCC2(CCN(c3ncc(Sc4ccnc(N5CCCC5CO)c4Cl)nc3CO)CC2)[C@@H]1N` (some centres unmarked) [Example 2] gave a negative logarithm of the IC50 (pIC50) in test [1] below 5.00.
In the case of `CC(C)(O)C1CN(c2nccc(Sc3cnc(N4CCC5(CC4)Cc4ccccc4[C@H]5N)c(CO)n3)c2Cl)C1` [Example 23, (S)-2-(1-(4-(5-(1-amino-1,3-dihydrospiro[indene-2,4′-piperidin]-1′-yl)-6-(hydroxymethyl)pyrazin-2-ylthio)-3-chloropyridin-2-yl)azetidin-3-yl)propan-2-ol], the IC50 in test [1] is above 10 µM.
